Laboratory results as given in US20110171321A1, “ELASTOMERIC ARTICLE HAVING A BROAD SPECTRUM ANTIMICROBIAL AGENT AND METHOD OF MAKING” (priority 2008, published 2011).

Tested on: E. coli, E. faecalis, K. pneumoniae, P. aeruginosa, C. albicans, S. aureus, and S. epidermidis
Experiment: zone of inhibition (ZOI), control articles in each plate
Type: cell-based
Conditions: 10 μg disk, values not shown
Source text: Samples were submitted in duplicate for each sterilization process. […] The diameter of each zone is reported in millimeters. […] The control results are not shown.

With gentamicin the “inhibition by positive control” value was “expected inhibition”.
